In patent US9789114B2, “Compounds as HIF-1α inhibitors and manufacturing process thereof” (DONGGUK UNIVERSITY INDUSTRY-ACADEMIC COOPERATION FOUNDATION, priority 2011, dated 2017):
Read-outs that look alike come from different tables or passages of the source.

Columns and labels:
[1] = tested on: HIF-1α-mediated HRE transcriptional activity; experiment: Assay for inhibition of HIF-1α-mediated transcriptional activity (HRE reporter assay); format: cell-based, human; conditions: Homo sapiens, HCT-116, HCT116 cells, 12 hours under hypoxia (1% O2), read-out: Inhibitory activity against HIF-1α (10 μM)
Outline: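 HCT116 human colon cancer cells co-transfected with pGL3 luciferase reporter carrying six HRE copies from human VEGF plus Renilla control, then treated with 0–20 μM compound for 12 h under hypoxia (1% O2). Inhibition taken from dual-luciferase reporter activity in lysates.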

HIF-1α = target: T1, HIF-1α (Homo sapiens, UniProt Q16665); experiment: Inhibition of hypoxia-induced HIF-1α accumulation, western blot in HCT116 cells; format: cell-based; conditions: HCT116, hypoxia 1% O2, 0-30 μM, 12 hours, FIG. 1
T1 construct: endogenous in cells; host or cells: HCT116 human colon cancer cells (ATCC #CCL-247)
Protocol: <Experiment 2> In Vitro Studies for Inhibition of Hypoxia-Induced HIF-1α Accumulation
Inhibition of HIF-1α accumulation by the compounds according to the present invention was determined in HCT116 human colon cancer cells. In particular, western blot analysis was used to identify the compounds, I-3, I-6, I-8, I-16, I-19, I-22˜I-24, and I-27˜I-36, which inhibited HIF-1α accumulation under hypoxia.
(§1) First, HCT116 human colon cancer cells (ATCC #CCL-247) were plated at the concentration of 2×10^5 cells/ml. After 24 hours, the cells were incubated under hypoxia (1% O2, 94% N2, and 5% CO2, expressed as 1% O2 in FIG. 1) for 4 hours in order to induce HIF-la accumulation. Cells were treated with the compounds at various concentrations (0, 3, 10, 20, and 30 μM) for 12 hours under hypoxia. The cells were then harvested, and lysed in RIPA buffer to obtain nuclear extracts. Cells grown at 20% O2 (normoxia) were used as control groups to compare HIF-1α-mediated gene expression under each condition. 30 μg of the nuclear extracts per sample was separated by SDS-PAGE (sodium dodecyl sulfate-polyacrylamide gel electrophoresis), and was then transferred to PVDF (polyvinylidene fluoride membrane) membranes. After membranes were probed with HIF-1α antibodies (R&D System), HIF-1α proteins were detected with HRP-conjugated secondary antibodies (Amersham-Pharmacia). GAPDH (Glyceraldehyde 3-phosphate dehydrogenase) was used as an internal control for loading in western blot analysis.

GAPDH = GAPDH expression level (internal control) in western blot, HCT116 cells; format: cell-based, human; conditions: HCT116, hypoxia 1% O2, 0-30 μM, 12 hours, FIG. 1
Protocol: as §1

[2] = tested on: Chick embryo chorioallantoic membrane; experiment: CAM (chick embryo chorioallantoic membrane) assay; format: in vivo; conditions: 10-20 μg on coverslip, 2 days, FIG. 2
Protocol: CAM (Chick embryo chorioallantoic membrane) assay was conducted as an in vivo model to determine whether the compounds according to the present invention, I-3, I-6, I-19, and I-22, had anti-angiogenic effects or not. DMSO-treated groups were used as negative controls.
According to the present invention, CAM assay was performed as follows.
Fertilized eggs were incubated periodically rolling at 37° C. with 50% humidity for 2-3 days. When eggs were erected, approximately 3 ml of albumin was extracted from the sharp edge of the eggs using a syringe. The hole of the eggs was sealed with a tape to prevent from dryness and contamination, and the hole of the eggs was put down and incubated for 2 to 3 days. After punching a hole with 1.5 cm diameter in the round part of eggs, opaque membrane was removed carefully. The compounds (10-20 μg) according to the present invention were placed and spread on thermanox coverslip equally to dry, and then the hole in the round part of eggs put on the upper part of the fertilized eggs that vessels grew. The eggs were examined under the dissecting microscope and the results were given in FIG. 2, after covering the hole with a coverglass to protect it from contamination for 2 days.

[3] = tested on: HCT116 colon cancer cells; experiment: In vivo anti-cancer activity by oral administration, HCT116 tumor in nude mice; parameters: species or system BALB/c nu/nu mice; conditions: for inhibitory effects on tumor growth (TGI results): 20 mg/kg oral once a day, 14 days; for inhibition in vivo at 20 mg/kg: Mus musculus
Protocol: <Example 4> In Vivo Anti-Cancer Activity of Compounds by Oral Administration
(§2) In vivo anti-cancer activity of the compounds according to the present invention, I-3, I-6, I-8, I-16, I-19, I-22, I-23, and I-24, was measured in mice to evaluate in vivo efficacy by oral administration. Specifically, the nude mice were divided into test groups and control groups, each consisting of 4 mice. In vivo efficacy was evaluated by measuring body weight, tumor volume, and tumor weight.
(§3) Female nude mice 6 weeks old (BALB/c nu/nu, Charles River) were bred in germ-free breeding rooms maintained at constant temperature and humidity. After the nude mice were anesthetized, HCT116 colon cancer cells were implanted at a count of […] cells/mouse into the rectum in BALB/c nu/nu mice and then the incisions were closed with surgical clips. The size of tumor was measured by a caliper. When the size of transplanted tumor reached to 50˜60 mm^3, the above compounds according to the present invention were administered. In more detail, after the above compounds in test groups were dissolved at concentration of 20 mg/kg in a solvent containing 80% of physiological saline, 10% of DMAC (dimethylacetamide), and 10% Tween 80 (hereinafter referred to as ‘Solvent A’), […] of dissolved compounds were orally administered once a day. Mice in control groups were treated with […] of Solvent A alone once daily.
(§4) Tumor volume and body weight were measured to identify in vivo anti-cancer activity of the compounds according to the present invention by repetitive oral administration. Tumor volume and tumor growth inhibition (TGI) in Table 2 were calculated according to the below Mathematic FIG. 1 and FIG. 2, respectively. Tumor growth inhibition was converted to a percentage in Table 2.

[4] = Body weight change and side effects during 14 days of oral treatment in nude mice; format: in vivo, BALB/c nu/nu mice
Protocol: as §2, §3, §4
Moreover, severe side effects and statistically significant changes of body weight in all mice treated compounds were not shown for 14 days, comparing to control groups treated with vehicle. (Table 3)

[5] = HCT-116, 72 h, day 3, 20 mg/kg oral once a day, read-out: TGI (tumor growth inhibition), tumor volume
[6] = HCT-116, 120 h, day 5, 20 mg/kg oral once a day, read-out: TGI (tumor growth inhibition), tumor volume
[7] = HCT-116, 168 h, day 7, 20 mg/kg oral once a day, read-out: TGI (tumor growth inhibition), tumor volume
[8] = HCT-116, 240 h, day 10, 20 mg/kg oral once a day, read-out: TGI (tumor growth inhibition), tumor volume
[9] = HCT-116, 288 h, day 12, 20 mg/kg oral once a day, read-out: TGI (tumor growth inhibition), tumor volume
[10] = HCT-116, 336 h, day 14, 20 mg/kg oral once a day, read-out: TGI (tumor growth inhibition), tumor volume
[11] = HCT-116, 336 h, day 14, 20 mg/kg oral once a day, read-out: TGI (tumor growth inhibition), tumor weight
[12] = day 3, 20 mg/kg oral once a day
[13] = day 5, 20 mg/kg oral once a day
[14] = day 7, 20 mg/kg oral once a day
[15] = day 10, 20 mg/kg oral once a day
[16] = day 12, 20 mg/kg oral once a day
[17] = day 14, 20 mg/kg oral once a day
[18] = day 0, 20 mg/kg oral once a day

T1 sequence (Q16665 whole entry): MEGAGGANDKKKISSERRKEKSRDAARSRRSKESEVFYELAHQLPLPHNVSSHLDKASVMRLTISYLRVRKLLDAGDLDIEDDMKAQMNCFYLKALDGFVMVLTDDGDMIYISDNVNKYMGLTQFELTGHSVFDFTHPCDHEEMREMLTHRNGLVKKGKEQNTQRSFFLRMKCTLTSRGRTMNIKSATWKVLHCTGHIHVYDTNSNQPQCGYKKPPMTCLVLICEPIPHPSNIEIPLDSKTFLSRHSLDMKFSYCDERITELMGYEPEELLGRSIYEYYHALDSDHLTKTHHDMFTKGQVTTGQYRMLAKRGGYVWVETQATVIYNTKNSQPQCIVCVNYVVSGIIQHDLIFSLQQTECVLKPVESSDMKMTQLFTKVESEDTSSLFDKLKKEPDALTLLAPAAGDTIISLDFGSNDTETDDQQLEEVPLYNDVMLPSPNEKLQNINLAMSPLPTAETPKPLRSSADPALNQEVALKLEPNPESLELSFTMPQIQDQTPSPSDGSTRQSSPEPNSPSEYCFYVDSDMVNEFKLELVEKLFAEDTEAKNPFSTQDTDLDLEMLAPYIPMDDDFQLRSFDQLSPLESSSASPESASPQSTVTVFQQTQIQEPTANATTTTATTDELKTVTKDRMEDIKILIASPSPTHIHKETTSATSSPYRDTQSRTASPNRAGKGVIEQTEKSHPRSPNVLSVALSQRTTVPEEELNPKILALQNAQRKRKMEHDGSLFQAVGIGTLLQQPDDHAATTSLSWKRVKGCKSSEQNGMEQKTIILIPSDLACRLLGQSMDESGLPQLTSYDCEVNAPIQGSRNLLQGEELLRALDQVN

Structure (SMILES)	inhibition at 10 µM [1] [%]	HIF-1α degradation (HIF-1α)	GAPDH expression levels (GAPDH)	formation of vessels (anti-angiogenic effect) [2]	inhibition in vivo at 20 mg/kg [3, 5] [%]	inhibition in vivo at 20 mg/kg [3, 6] [%]	inhibition in vivo at 20 mg/kg [3, 7] [%]	inhibition in vivo at 20 mg/kg [3, 8] [%]	inhibition in vivo at 20 mg/kg [3, 9] [%]	inhibition in vivo at 20 mg/kg [3, 10] [%]	inhibition in vivo at 20 mg/kg [3, 11] [%]	Tumor volume [3, 12] [mm^3]	Tumor volume [3, 13] [mm^3]	Tumor volume [3, 14] [mm^3]	Tumor volume [3, 15] [mm^3]	Tumor volume [3, 16] [mm^3]	Tumor volume [3, 17] [mm^3]	Tumor weight [3, 17] [mg]	Body weight change [4, 18] [%]	Body weight change [4, 12] [%]	further results
CN1CCN(C(=O)COc2ccc(C34CC5CC(CC(C5)C3)C4)cc2)CC1 [Compound I-3, 2-(4-(Adamantan-1-yl)phenoxy)-1-(4-methylpiperazin-1-yl)ethanone]	76 to 100	promoted HIF-1α degradation	did not affect GAPDH expression levels	inhibited formation of vessels	33.2	35	36	41.6	44.1	49.2	51.5	31.6 ± 5.0	74.8 ± 11.7	133.7 ± 14.8	237.0 ± 24.9	371.4 ± 36.2	587.8 ± 48.4	2074.2 ± 373.8	100.0 ± 0.0	103.2 ± 2.8	inhibitory effects on HIF-1α accumulation (HIF-1α): significant inhibitory effects on HIF-1α accumulation; inhibitory effects on tumor growth (TGI results) [3]: significant inhibitory effects on tumor growth; Body weight change [4, 13]: 104.7 ± 3.0%; Body weight change [4, 14]: 105.1 ± 2.8%; Body weight change [4, 15]: 104.6 ± 2.7%; Body weight change [4, 16]: 103.1 ± 2.7%; Body weight change [4, 17]: 103.7 ± 4.0%
Cc1cc(C23CC4CC(CC(C4)C2)C3)ccc1OCC(=O)N1CCOCC1 [Compound I-6, 2-(4-(Adamantan-1-yl)-2-methylphenoxy)-1-morpholinoethanone]	76 to 100	promoted HIF-1α degradation	did not affect GAPDH expression levels	inhibited formation of vessels	25	24.1	26.5	28.4	28.1	28.4	28.1	25.5 ± 7.5	70.1 ± 9.7	128.4 ± 14.0	186.6 ± 15.2	322.5 ± 19.6	476.9 ± 28.1	1703.3 ± 252.2	100.0 ± 0.0	103.4 ± 0.6	Body weight change [4, 13]: 103.6 ± 2.6%; Body weight change [4, 14]: 103.8 ± 3.3%; Body weight change [4, 15]: 105.0 ± 3.1%; Body weight change [4, 16]: 103.8 ± 2.9%; Body weight change [4, 17]: 102.4 ± 3.0%
C[N+](C)(C)CCNC(=O)CCOc1ccc(C23CC4CC(CC(C4)C2)C3)cc1.[I-] [Compound I-19, 2-(3-(4-(Adamantan-1-yl)phenoxy)propanamido)-N,N,N-trimethylethanaminium iodide]	26 to 50	promoted HIF-1α degradation	did not affect GAPDH expression levels	inhibited formation of vessels	34.1	36.4	36.8	37.7	37.8	39.2	41.3	22.4 ± 5.6	58.8 ± 11.3	110.4 ± 11.2	162.3 ± 10.1	278.8 ± 35.0	404.7 ± 17.6	1392.4 ± 153.0	100.0 ± 0.0	104.0 ± 1.6	inhibitory effects on HIF-1α accumulation (HIF-1α): significant inhibitory effects on HIF-1α accumulation; inhibitory effects on tumor growth (TGI results) [3]: significant inhibitory effects on tumor growth; Body weight change [4, 13]: 104.7 ± 3.1%; Body weight change [4, 14]: 104.6 ± 4.0%; Body weight change [4, 15]: 105.1 ± 4.3%; Body weight change [4, 16]: 103.4 ± 3.5%; Body weight change [4, 17]: 102.2 ± 3.8%
